Values joined by “and” are separate entries in the source; they are usually repeats but may differ in a detail not shown here. Equal entries are not always repeated.
Experiments:
[1] = set-up: method as in Moncada et al., 1976; details: pH 7.4; degradation to 6-oxo-PGF1a; ref Moncada et al., 1976; cited from earlier work
[2] = biological target: T1, prostaglandin I2 (prostacyclin, PGI2) binding sites (Homo sapiens, UniProt P43119); assay: [3H]iloprost saturation binding (vacuum filtration, Scatchard analysis) on normal thyroid membrane fraction
Procedure: (§1) For comparative studies saturation experi- ments were performed. […] Values are given as x +s.d. Student's t-test was employed for paired data. […] Each point represents the average of 6 separate experiments. […] Each point represents the average of 5 separate determinations.

[3] = biological target: prostaglandin I2 (prostacyclin, PGI2) binding sites; assay: as above; set-up: species or system human; details: normal thyroid tissue, 4 C, 40 min, mean +/- s.d.; read-out: equilibrium dissociation constant (Kd), low affinity binding sites
Procedure: as §1

[4] = biological target: T1, prostaglandin I2 (prostacyclin, PGI2) binding sites; assay: [3H]iloprost saturation binding (vacuum filtration, Scatchard analysis) on well differentiated thyroid cancer membrane fraction
Procedure: as §1

[5] = biological target: T1, prostaglandin I2 (prostacyclin, PGI2) binding sites; assay: [3H]iloprost saturation binding (vacuum filtration, Scatchard analysis) on less differentiated and anaplastic thyroid cancer membrane fraction
Procedure: as §1

[6] = biological target: T1, prostaglandin I2 (prostacyclin, PGI2) binding sites; assay: [3H]iloprost saturation binding (vacuum filtration, Scatchard analysis) on benign solitary thyroid adenoma membrane fraction

T1 sequence (P43119 1-383): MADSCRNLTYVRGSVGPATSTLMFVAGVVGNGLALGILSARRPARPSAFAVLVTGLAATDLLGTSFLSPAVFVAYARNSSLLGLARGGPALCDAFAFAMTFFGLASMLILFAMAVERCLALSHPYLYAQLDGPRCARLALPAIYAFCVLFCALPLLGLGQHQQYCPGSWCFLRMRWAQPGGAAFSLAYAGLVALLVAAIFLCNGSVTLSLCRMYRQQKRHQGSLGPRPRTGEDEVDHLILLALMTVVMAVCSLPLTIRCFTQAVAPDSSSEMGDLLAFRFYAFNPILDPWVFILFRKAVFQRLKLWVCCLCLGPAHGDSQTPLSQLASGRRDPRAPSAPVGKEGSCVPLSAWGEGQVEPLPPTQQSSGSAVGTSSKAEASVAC

For `CCCCC[C@H](O)/C=C/[C@@H]1[C@H]2C/C(=C/CCCC(=O)O)O[C@H]2C[C@H]1O` [PGI2, prostaglandin I2], the “stability in aqueous medium” value [1] is listed as “rapid hydrolysis”.

For `CC#CCC(C)[C@H](O)/C=C/[C@@H]1[C@H]2C/C(=C/CCCC(=O)O)C[C@H]2C[C@H]1O` (stereo partly drawn) [[3H]iloprost, iloprost], the “binding capacity (Bmax), high affinity binding sites” value [2] was 613.2 ± 130.4, the Kd [3] was 132 nM and the Bmax [4] was 328.9 fmol mg- 1 protein and 359.2 fmol mg- 1 protein and 253.6 fmol mg- 1 protein and 255.5 fmol mg- 1 protein and 301.2 fmol mg- 1 protein. For the same compound, the “Bmax, high affinity binding sites” value [4] was 299.7 ± 46.0, the Bmax [5] was 218.1 fmol mg- 1 protein and 176.0 fmol mg- 1 protein and 153.2 fmol mg- 1 protein and 165.3 fmol mg- 1 protein and 190.6 fmol mg- 1 protein and the “Bmax, high affinity binding sites” value [5] was 180.6 ± 25.1. For the same compound, the “diminution of [3H]iloprost high affinity binding sites” value [5] was ~70% and the “Bmax, high affinity binding sites” value [6] was 325.8 ± 110.0.

From article PMC2246842, “Decrease of prostaglandin I2 binding sites in thyroid cancer” (British Journal of Cancer, 1988)
